Data as given in US20230201244A1, “COMPOSITIONS AND METHODS FOR PREVENTING AND/OR TREATING MICROBIAL INFECTIONS” (University of Louisville Research Foundation, Inc., priority 2020, published 2023).

Columns and labels:
NF-κB (p65) = type: in vivo, C57BL/6 mice; settings: inhibitor daily for three days at 5 mg/kg/d before intratracheal exosomes
TNFα, IL-1β and IL-6 = experiment: ELISA of inflammatory cytokines in lung or lung macrophages of mice given exosomes^Nsp12Nsp13; type: in vivo, C57BL/6 mice; settings: lung macrophages, TNFα and IL-6 ELISA, i.p. pretreatment, FIG. 10B
[1] = test system: lung epithelial cells (EpCAM^+); experiment: Lung apoptosis in mice given exosomes^Nsp12Nsp13 (TUNEL, Annexin V flow cytometry of EpCAM+ cells); type: in vivo, C57BL/6 mice; settings: inhibitor pretreatment
[2] = test system: lung epithelial A549 cells; experiment: Apoptosis of A549 cells by flow cytometry (Annexin V/7-AAD); type: cell-based, human

## Cc1ccc(S(=O)(=O)/C=C/C#N)cc1 [Bay 11-7821]
NF-κB (p65)
  lung macrophage NF-κB activity induced by exosomes^Nsp12Nsp13: inhibited
TNFα, IL-1β and IL-6
  inflammatory cytokines induced by exosomes^Nsp12Nsp13: attenuation of inflammatory cytokines
[1]; Annexin V flow cytometry, FIG. 5E
  induction of lung epithelial cell (EpCAM+) apoptosis: blocked
[1]; lung sections, FIG. 5D
  lung apoptosis induced by exosomes^Nsp12Nsp13 (TUNEL staining): reduced
[2]; A549 cells presented to Nsp12/13, Bay 11-7821, FIG. 5F top panel
  A549 cell apoptosis on direct exposure: little influence
[2]; A549 cells, antibodies 10 ng/ml, FIG. 5F middle and bottom panel
  apoptosis of lung epithelial cells induced by supernatant from U937 cells treated with exosomes^Nsp12Nsp13: inhibited
